Reference: ChEMBL document CHEMBL3785022, “Pharmacokinetics of cyclophosphamide and alkylating activity in man after intravenous and oral administration” (Br J Clin Pharmacol, 1979)

How the values were obtained:
[1] = Half life in po dosed lymphoma patient (7 patients) by one compartment open model; details: human, in vivo
[2] = First order rate constant for slow elimination phase in iv dosed lymphoma patient (6 patients) by two-compartmental open model; details: human, in vivo
clinical [3] = details: human, plasma, iv, 11.3 mg/kg
clinical [4] = details: human, in vivo, iv, 11.3 mg/kg
Description: Elimination half life in lymphoma patient at 11.3 mg/kg, iv by one compartment open model

clinical [5] = details: human, in vivo, iv, 11.3 mg/kg; remark: listed apart in the source
Description: Clearance in lymphoma patient at 11.3 mg/kg, iv by one compartment open model

[6] = Clearance in po dosed lymphoma patient (7 patients) by one compartment open model; details: human, in vivo
[7] = Apparent volume of distribution of central compartment in iv dosed lymphoma patient (6 patients) by two-compartmental open model; details: human, in vivo
clinical [8] = details: human, in vivo, iv, 11.3 mg/kg; remark: listed apart in the source
Description: Volume of distribution in lymphoma patient at 11.3 mg/kg, iv by one compartment open model

[9] = Apparent volume of distribution during terminal log-linear elimination phase in iv dosed lymphoma patient (6 patients) by two-compartmental open model; details: human, in vivo
clinical [10] = details: human, in vivo, iv, 11.3 mg/kg; remark: listed apart in the source
Description: Elimination rate constant in lymphoma patient at 11.3 mg/kg, iv by one compartment open model

[11] = Elimination rate constant in po dosed lymphoma patient (7 patients) by one compartment open model; details: human, in vivo
[12] = Drug excretion in po dosed lymphoma patient (7 patients) assessed as unchanged parent compound in urine; details: human
[13] = Extraction ratio in lymphoma patient (7 patients); details: human, in vivo
[14] = Renal clearance in lymphoma patient (7 patients); details: human, in vivo
[15] = Elimination rate constant from central compartment in iv dosed lymphoma patient (6 patients) by two-compartmental open model; details: human, in vivo

In the case of `O=P1(N(CCCl)CCCl)NCCCO1` (stereo not given) [CYCLOPHOSPHAMIDE ANHYDROUS], the half-life [1] was 3.93 h, the k el [2] was 2.53e-05 s⁻¹ and the C0 (clinical [3]) was 12500 ng/mL. It also gave a half-life (clinical [4]) of 6.42 h, a clearance (clinical [5]) of 1.62 mL/min/kg and a CL/F [6] of 1.55 mL/min/kg. The Vd [7] was 0.38 L/kg, the Vd (clinical [8]) was 0.9 L/kg and the Vd [9] was 0.71 L/kg. The k el (clinical [10]) was 3e-05 s⁻¹, the k el [11] was 6.03e-05 s⁻¹ and the dose excreted [12] was 1.8%. For the same molecule, the hepatic extraction ratio [13] was 0.25, the CL renal [14] was 0.08 mL/min/kg and the k el [15] was 5.56e-05 s⁻¹.
